According to ChEMBL document CHEMBL4049381 (Medchemcomm, 2016):

Key:
[1] = Ratio of Vmax to Km for human OATP2B1 H618Q/H579Q double mutant low affinity site expressed in Xenopus laevis oocytes assessed as transporter-mediated drug uptake per 15 mins per oocyte after 15 mins by Eadie-Hofstee plot method; assay type: ADME, cell-based; conditions: 0.25 h
[2] = target: T1, Solute carrier organic anion transporter family member 2B1 (Homo sapiens, UniProt O94956); experiment: Drug uptake assessed as OATP2B1 low affinity site (unknown origin)-mediated drug uptake in presence of 1 mM sulfasalazine relative to control; assay type: ADME
T1 sequence (O94956 whole entry): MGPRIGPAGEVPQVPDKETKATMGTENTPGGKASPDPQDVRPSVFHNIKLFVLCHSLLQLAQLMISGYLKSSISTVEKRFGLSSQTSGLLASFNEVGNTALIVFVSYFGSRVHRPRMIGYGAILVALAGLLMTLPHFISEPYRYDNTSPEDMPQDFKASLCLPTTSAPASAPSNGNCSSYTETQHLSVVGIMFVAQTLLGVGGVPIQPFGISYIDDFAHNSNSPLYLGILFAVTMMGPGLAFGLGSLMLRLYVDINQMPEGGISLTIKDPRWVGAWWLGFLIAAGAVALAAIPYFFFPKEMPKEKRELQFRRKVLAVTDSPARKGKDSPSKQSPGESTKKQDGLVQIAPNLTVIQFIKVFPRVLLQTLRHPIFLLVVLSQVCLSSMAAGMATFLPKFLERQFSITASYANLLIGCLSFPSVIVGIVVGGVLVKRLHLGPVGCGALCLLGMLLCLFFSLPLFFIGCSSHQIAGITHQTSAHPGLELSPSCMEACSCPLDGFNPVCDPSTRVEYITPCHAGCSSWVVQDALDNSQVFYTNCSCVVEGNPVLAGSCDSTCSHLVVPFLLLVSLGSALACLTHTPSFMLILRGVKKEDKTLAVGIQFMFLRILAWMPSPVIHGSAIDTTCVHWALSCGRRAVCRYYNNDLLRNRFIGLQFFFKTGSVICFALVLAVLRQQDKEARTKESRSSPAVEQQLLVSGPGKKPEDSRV

[3] = target: T2, Solute carrier organic anion transporter family member 2B1 (Homo sapiens, UniProt O94956, H618Q); experiment: Ratio of Vmax to Km for human OATP2B1 H618Q mutant low affinity site expressed in Xenopus laevis oocytes assessed as transporter-mediated drug uptake per 15 mins per oocyte after 15 mins by Eadie-Hofstee plot method; assay type: ADME, cell-based; conditions: 0.25 h
T2 sequence (O94956 whole entry T392I/H618Q): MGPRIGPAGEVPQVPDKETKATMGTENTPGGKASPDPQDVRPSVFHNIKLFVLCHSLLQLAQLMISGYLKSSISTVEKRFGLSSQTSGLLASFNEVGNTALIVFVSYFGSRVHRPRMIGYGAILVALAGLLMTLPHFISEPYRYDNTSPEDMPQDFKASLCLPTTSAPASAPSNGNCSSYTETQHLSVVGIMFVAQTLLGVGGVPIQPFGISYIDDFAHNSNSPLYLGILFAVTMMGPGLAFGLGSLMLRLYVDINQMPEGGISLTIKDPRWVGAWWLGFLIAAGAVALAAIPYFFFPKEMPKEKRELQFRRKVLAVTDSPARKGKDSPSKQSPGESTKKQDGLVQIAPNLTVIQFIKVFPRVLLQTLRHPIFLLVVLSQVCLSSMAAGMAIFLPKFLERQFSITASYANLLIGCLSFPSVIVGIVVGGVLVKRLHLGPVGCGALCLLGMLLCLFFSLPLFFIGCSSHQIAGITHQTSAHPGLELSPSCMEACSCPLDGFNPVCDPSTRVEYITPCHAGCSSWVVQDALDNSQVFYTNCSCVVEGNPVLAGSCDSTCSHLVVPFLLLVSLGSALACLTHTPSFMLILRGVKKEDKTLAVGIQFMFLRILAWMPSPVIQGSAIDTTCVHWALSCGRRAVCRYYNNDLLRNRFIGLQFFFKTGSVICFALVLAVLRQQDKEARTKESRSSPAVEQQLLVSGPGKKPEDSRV

[4] = Substrate activity at human OATP2B1 H579Q/H618Q double mutant high affinity site expressed in Xenopus laevis oocytes assessed as Vmax for transporter-mediated drug accumulation per 15 mins per oocyte by Eadie-Hofstee plot method; assay type: ADME, cell-based; conditions: 0.25 h
[5] = target: T2, Solute carrier organic anion transporter family member 2B1; experiment: Substrate activity at human OATP2B1 H618Q mutant low affinity site expressed in Xenopus laevis oocytes assessed as Vmax for transporter-mediated drug accumulation per 15 mins per oocyte by Eadie-Hofstee plot method; assay type: ADME, cell-based; conditions: 0.25 h
[6] = target: T2, Solute carrier organic anion transporter family member 2B1; experiment: Drug uptake assessed as human OATP2B1 H618Q mutant expressed in Xenopus laevis oocyte mediated drug accumulation at 0.005 uM after 15 mins by LC-MS/MS analysis relative to wild type protein; assay type: ADME; conditions: 0.25 h
[7] = target: Solute carrier organic anion transporter family member 2B1 (Homo sapiens, UniProt O94956, H219Q); experiment: Drug uptake assessed as human OATP2B1 H219Q mutant expressed in Xenopus laevis oocyte mediated drug accumulation at 0.005 to 50 uM after 15 mins by LC-MS/MS analysis relative to wild type protein; assay type: ADME; conditions: 0.25 h
Sequence of Solute carrier organic anion transporter family member 2B1 (Homo sapiens, UniProt O94956, H219Q) (O94956 whole entry H219Q/T392I): as the sequence (O94956 whole entry T392I/H618Q) above, with H219Q, Q618H counted along it

[8] = target: T1, Solute carrier organic anion transporter family member 2B1; experiment: Drug uptake assessed as OATP2B1 high affinity site (unknown origin)-mediated drug uptake in presence of 1 mM pravastatin relative to control; assay type: ADME
[9] = target: T1, Solute carrier organic anion transporter family member 2B1; experiment: Substrate activity at human OATP2B1 high affinity site expressed in Xenopus laevis oocytes assessed as Vmax for transporter-mediated drug accumulation per 15 mins per oocyte by Eadie-Hofstee plot method; assay type: ADME, cell-based; conditions: 0.25 h
[10] = target: T1, Solute carrier organic anion transporter family member 2B1; experiment: Drug uptake assessed as human OATP2B1 expressed in Xenopus laevis oocyte mediated drug accumulation per oocyte at 0.005 uM after 15 mins by LC-MS/MS analysis; assay type: ADME; conditions: 0.25 h
[11] = target: T1, Solute carrier organic anion transporter family member 2B1; experiment: Ratio of Vmax to Km for human OATP2B1 high affinity site expressed in Xenopus laevis oocytes assessed as transporter-mediated drug uptake per 15 mins per oocyte after 15 mins by Eadie-Hofstee plot method; assay type: ADME, cell-based; conditions: 0.25 h
[12] = target: T2, Solute carrier organic anion transporter family member 2B1; experiment: Substrate activity at human OATP2B1 H618Q mutant high affinity site expressed in Xenopus laevis oocytes assessed as Vmax for transporter-mediated drug accumulation per 15 mins per oocyte by Eadie-Hofstee plot method; assay type: ADME, cell-based; conditions: 0.25 h
[13] = Ratio of Vmax to Km for human OATP2B1 H579Q/H618Q double mutant high affinity site expressed in Xenopus laevis oocytes assessed as transporter-mediated drug uptake per 15 mins per oocyte after 15 mins by Eadie-Hofstee plot method; assay type: ADME, cell-based; conditions: 0.25 h
[14] = target: T2, Solute carrier organic anion transporter family member 2B1; experiment: Ratio of Vmax to Km for human OATP2B1 H618Q mutant high affinity site expressed in Xenopus laevis oocytes assessed as transporter-mediated drug uptake per 15 mins per oocyte after 15 mins by Eadie-Hofstee plot method; assay type: ADME, cell-based; conditions: 0.25 h
[15] = system: OATP2B1 H579Q/H618Q double mutant, high affinity site; experiment: Substrate activity at human OATP2B1 H579Q/H618Q double mutant high affinity site expressed in Xenopus laevis oocytes assessed as Km for transporter-mediated drug accumulation after 15 mins by Eadie-Hofstee plot method; assay type: ADME, cell-based
[16] = target: T2, Solute carrier organic anion transporter family member 2B1; experiment: Drug uptake assessed as human OATP2B1 H618Q mutant expressed in Xenopus laevis oocyte mediated drug accumulation at 0.005 to 50 uM after 15 mins by LC-MS/MS analysis relative to wild type protein; assay type: ADME; conditions: 0.25 h
[17] = system: OATP2B1 H618Q/H579Q double mutant, low affinity site; experiment: Substrate activity at human OATP2B1 H618Q/H579Q double mutant low affinity site expressed in Xenopus laevis oocytes assessed as Km for transporter-mediated drug accumulation after 15 mins by Eadie-Hofstee plot method; assay type: ADME, cell-based
[18] = Substrate activity at human OATP2B1 H618Q/H579Q double mutant low affinity site expressed in Xenopus laevis oocytes assessed as Vmax for transporter-mediated drug accumulation per 15 mins per oocyte by Eadie-Hofstee plot method; assay type: ADME, cell-based; conditions: 0.25 h
[19] = target: Solute carrier organic anion transporter family member 2B1 (Homo sapiens, UniProt O94956, R607A); experiment: Drug uptake assessed as human OATP2B1 R607A mutant expressed in Xenopus laevis oocyte mediated drug accumulation at 0.005 to 50 uM after 15 mins by LC-MS/MS analysis relative to wild type protein; assay type: ADME; conditions: 0.25 h
Sequence of Solute carrier organic anion transporter family member 2B1 (Homo sapiens, UniProt O94956, R607A) (O94956 whole entry T392I/R607A): as the sequence (O94956 whole entry T392I/H618Q) above, with R607A, Q618H counted along it

[20] = target: T3, Solute carrier organic anion transporter family member 2B1 (Homo sapiens, UniProt O94956, H579Q); experiment: Drug uptake assessed as human OATP2B1 H579Q mutant expressed in Xenopus laevis oocyte mediated drug accumulation at 50 uM after 15 mins by LC-MS/MS analysis relative to wild type protein; assay type: ADME; conditions: 0.25 h
T3 sequence (O94956 whole entry T392I/H579Q): as the sequence (O94956 whole entry T392I/H618Q) above, with H579Q, Q618H counted along it

[21] = target: T1, Solute carrier organic anion transporter family member 2B1; experiment: Drug uptake assessed as OATP2B1 low affinity site (unknown origin)-mediated drug uptake in presence of 1 mM pravastatin relative to control; assay type: ADME
[22] = target: T1, Solute carrier organic anion transporter family member 2B1; experiment: Drug uptake assessed as human OATP2B1 expressed in Xenopus laevis oocyte mediated drug accumulation per oocyte at 50 uM after 15 mins by LC-MS/MS analysis; assay type: ADME; conditions: 0.25 h
[23] = target: T1, Solute carrier organic anion transporter family member 2B1; experiment: Drug uptake assessed as OATP2B1 high affinity site (unknown origin)-mediated drug uptake in presence of 1 mM sulfasalazine relative to control; assay type: ADME
[24] = target: T3, Solute carrier organic anion transporter family member 2B1; experiment: Drug uptake assessed as human OATP2B1 H579Q mutant expressed in Xenopus laevis oocyte mediated drug accumulation at 0.005 to 50 uM after 15 mins by LC-MS/MS analysis relative to wild type protein; assay type: ADME; conditions: 0.25 h
[25] = target: T1, Solute carrier organic anion transporter family member 2B1; experiment: Ratio of Vmax to Km for human OATP2B1 low affinity site expressed in Xenopus laevis oocytes assessed as transporter-mediated drug uptake per 15 mins per oocyte after 15 mins by Eadie-Hofstee plot method; assay type: ADME, cell-based; conditions: 0.25 h
[26] = target: T1, Solute carrier organic anion transporter family member 2B1; experiment: Substrate activity at human OATP2B1 low affinity site expressed in Xenopus laevis oocytes assessed as Vmax for transporter-mediated drug accumulation per 15 mins per oocyte by Eadie-Hofstee plot method; assay type: ADME, cell-based; conditions: 0.25 h

- Vmax/Km [1]: 0.0987 µL
- Drug uptake [2]: < 1%
- Vmax/Km [3]: 0.659 µL
- Vmax [4]: 0.38 pmol
- Vmax [5]: 60 pmol
- Drug uptake [6]: 17.8%
- fold change (FC) [7]: < 2
- Drug uptake [8]: 21%
- Vmax [9]: 0.867 pmol
- Drug uptake [10]: 2.39 µL
- Vmax/Km [11]: 1.87 µL
- Vmax [12]: 0.0402 pmol
- Vmax/Km [13]: 0.471 µL
- Vmax/Km [14]: 0.269 µL
- Km at 0.25 h [15]: 0.808 µM
- fold change (FC) [16]: < 2
- Km at 0.25 h [17]: 312 µM
- Vmax [18]: 30.9 pmol
- fold change (FC) [19]: < 2
- Drug uptake [20]: 14%
- Drug uptake [21]: 79%
- Drug uptake [22]: 0.198 µL
- Drug uptake [23]: < 1%
- fold change (FC) [24]: < 2
- Vmax/Km [25]: 0.385 µL
- Vmax [26]: 19.8 pmol
SMILES: C[C@]12CC[C@@H]3c4ccc(OS(=O)(=O)O)cc4CC[C@H]3[C@@H]1CCC2=O [ESTRONE SULFURIC ACID]
